Tested on: trypsin
Experiment: Trypsin digestion of Angiotensin III, LC-MS
Type: in vitro ADME
Details: 10 mM phosphate buffer pH 7.4, no nanoparticle (Figure 1a)

CC[C@H](C)[C@H](NC(=O)[C@H](Cc1ccc(O)cc1)NC(=O)[C@@H](NC(=O)[C@@H](N)CCCN=C(N)N)C(C)C)C(=O)N[C@@H](Cc1c[nH]cn1)C(=O)N1CCC[C@H]1C(=O)N[C@@H](Cc1ccccc1)C(=O)O [A‐III, Angiotensin III]
time in which the peptide could be cleaved in buffer: 120 min
